Experimental data reported in ChEMBL document CHEMBL1134243, “2-[N1-2-pyrimidyl-aminobenzenesulfonamido] ethyl 4-bis(2-chloroethyl) aminophenyl butyrate: a potent antitumor agent” (Bioorg Med Chem Lett, 2001).

Key:
[1] = Therapeutic Index was determined; conditions: read-out: TI
[2] = Lethal dose at a concentration of 0.225 mmol/kg in mice administered intraperitoneally; type: toxicity, organism-based; conditions: mouse, in vivo, ip
[3] = In vivo antitumor activity against murine S-180 sarcoma at a dose of 9.6 mg/kg administered intraperitoneally 7qd in mice expressed effect on tumor weight; type: functional, Mus musculus; conditions: route intraperitoneal
[4] = In vivo antitumor activity against murine S-180 sarcoma at a dose of 4.8 mg/kg administered intraperitoneally 7qd in mice expressed as percent inhibition; type: functional; conditions: Mus musculus, S-180, ip, route intraperitoneal
[5] = In vivo antitumor activity against murine S-180 sarcoma at a dose of 6.5 mg/kg administered intraperitoneally 7qd in mice expressed as percent inhibition; type: functional; conditions: Mus musculus, S-180, ip, route intraperitoneal
[6] = In vivo antitumor activity against murine S-180 sarcoma at a dose of 9.6 mg/kg administered intraperitoneally 7qd in mice expressed as percent inhibition; type: functional; conditions: Mus musculus, S-180, ip, route intraperitoneal
Mus musculus [7] = experiment: Antitumor activity against murine S-180 sarcoma at dose of LD50 X 1/10 equal toxicity; type: functional
Mus musculus [8] = experiment: Antitumor activity against murine S-180 sarcoma at dose of LD50 X 1/20 equal toxicity; type: functional
Mus musculus [9] = experiment: Antitumor activity against murine S-180 sarcoma at dose of LD50 X 1/40 equal toxicity; type: functional
[10] = In vivo antitumor activity against murine S-180 sarcoma at a dose of 13 mg/kg administered intraperitoneally 7qd in Male TA1 mice; 9 survived out of 10 mice; type: functional, Mus musculus; conditions: route intraperitoneal
[11] = In vivo antitumor activity against murine S-180 sarcoma at a dose of 2.5 mg/kg administered intraperitoneally 7qd in Male TA1 mice; 10 survived out of 10 mice; type: functional, Mus musculus; conditions: route intraperitoneal
[12] = In vivo antitumor activity against murine S-180 sarcoma at a dose of 3.3 mg/kg administered intraperitoneally 7qd in Male TA1 mice; 10 survived out of 10 mice; type: functional, Mus musculus; conditions: route intraperitoneal
[13] = In vivo antitumor activity against murine S-180 sarcoma at a dose of 6.5 mg/kg administered intraperitoneally 7qd in Male TA1 mice; 10 survived out of 10 mice; type: functional, Mus musculus; conditions: route intraperitoneal
[14] = In vivo antitumor activity against murine S-180 sarcoma at a dose of 9.6 mg/kg administered intraperitoneally 7qd in Male TA1 mice; 9 survived out of 10 mice; type: functional, Mus musculus; conditions: route intraperitoneal
[15] = In vivo antitumor activity against murine S-180 sarcoma at a dose of 13 mg/kg administered intraperitoneally 7qd in mice expressed effect on tumor weight; type: functional, Mus musculus; conditions: route intraperitoneal
[16] = In vivo antitumor activity against murine S-180 sarcoma at a dose of 2.5 mg/kg administered intraperitoneally 7qd in mice expressed effect on tumor weight; type: functional, Mus musculus; conditions: route intraperitoneal
[17] = In vivo antitumor activity against murine S-180 sarcoma at a dose of 3.3 mg/kg administered intraperitoneally 7qd in mice expressed effect on tumor weight; type: functional, Mus musculus; conditions: route intraperitoneal
[18] = In vivo antitumor activity against murine S-180 sarcoma at a dose of 4.8 mg/kg administered intraperitoneally 7qd in mice expressed effect on tumor weight; type: functional, Mus musculus; conditions: route intraperitoneal
[19] = In vivo antitumor activity against murine S-180 sarcoma at a dose of 6.5 mg/kg administered intraperitoneally 7qd in mice expressed effect on tumor weight; type: functional, Mus musculus; conditions: route intraperitoneal
[20] = Antitumor activity against murine S-180 sarcoma at dose of 0.016(mmol/kg); type: functional, Mus musculus
[21] = Antitumor activity against murine S-180 sarcoma at dose of 0.022(mmol/kg); type: functional, Mus musculus
[22] = In vivo antitumor activity against murine S-180 sarcoma at a dose of 13 mg/kg administered intraperitoneally 7qd in mice; Body wt initial/Final = 19.8/18.0; type: functional, Mus musculus; conditions: route intraperitoneal
[23] = In vivo antitumor activity against murine S-180 sarcoma at a dose of 2.5 mg/kg administered intraperitoneally 7qd in mice; Body wt initial/Final = 19.9/23.4; type: functional, Mus musculus; conditions: route intraperitoneal
[24] = In vivo antitumor activity against murine S-180 sarcoma at a dose of 3.3 mg/kg administered intraperitoneally 7qd in mice; Body wt initial/Final = 19.6/22.5; type: functional, Mus musculus; conditions: route intraperitoneal
[25] = Antitumor activity against murine S-180 sarcoma at dose of 0.004(mmol/kg); type: functional, Mus musculus
[26] = Antitumor activity against murine S-180 sarcoma at dose of 0.008(mmol/kg); type: functional, Mus musculus
[27] = In vivo antitumor activity against murine S-180 sarcoma at a dose of 6.5 mg/kg administered intraperitoneally 7qd in mice; Body wt initial/Final = 19.8/19.5; type: functional, Mus musculus; conditions: route intraperitoneal
[28] = In vivo antitumor activity against murine S-180 sarcoma at a dose of 9.6 mg/kg administered intraperitoneally 7qd in mice; Body wt initial/Final = 19.6/18.3; type: functional, Mus musculus; conditions: route intraperitoneal
[29] = In vivo antitumor activity against murine S-180 sarcoma at a dose of 13 mg/kg administered intraperitoneally 7qd in mice expressed as percent inhibition; type: functional; conditions: Mus musculus, S-180, ip, route intraperitoneal
[30] = In vivo antitumor activity against murine S-180 sarcoma at a dose of 2.5 mg/kg administered intraperitoneally 7qd in mice expressed as percent inhibition; type: functional; conditions: Mus musculus, S-180, ip, route intraperitoneal
[31] = In vivo antitumor activity against murine S-180 sarcoma at a dose of 3.3 mg/kg administered intraperitoneally 7qd in mice expressed as percent inhibition; type: functional; conditions: Mus musculus, S-180, ip, route intraperitoneal
[32] = In vivo antitumor activity against murine S-180 sarcoma at a dose of 4.8 mg/kg administered intraperitoneally 7qd in mice; Body wt initial/Final = 19.8/20.7; type: functional, Mus musculus; conditions: route intraperitoneal
[33] = In vivo antitumor activity against murine S-180 sarcoma at a dose of 4.8 mg/kg administered intraperitoneally 7qd in Male TA1 mice; 10 survived out of 10 mice; type: functional, Mus musculus; conditions: route intraperitoneal
[34] = Lethal dose at a concentration of 0.163 mmol/kg in mice administered intraperitoneally; type: toxicity, organism-based; conditions: mouse, in vivo, ip
[35] = In vivo antitumor activity against murine S-180 sarcoma at a dose of 5 mg/kg administered intraperitoneally 7qd in mice expressed as percent inhibition; type: functional; conditions: Mus musculus, S-180, ip, route intraperitoneal
[36] = In vivo antitumor activity against murine S-180 sarcoma at a dose of 6.8 mg/kg administered intraperitoneally 7qd in mice expressed as percent inhibition; type: functional; conditions: Mus musculus, S-180, ip, route intraperitoneal
[37] = In vivo antitumor activity against murine S-180 sarcoma at a dose of 1.3 mg/kg administered intraperitoneally 7qd in Male TA1 mice; 10 survived out of 10 mice; type: functional, Mus musculus; conditions: route intraperitoneal
[38] = In vivo antitumor activity against murine S-180 sarcoma at a dose of 5 mg/kg administered intraperitoneally 7qd in Male TA1 mice; 9 survived out of 10 mice; type: functional, Mus musculus; conditions: route intraperitoneal
[39] = In vivo antitumor activity against murine S-180 sarcoma at a dose of 6.8 mg/kg administered intraperitoneally 7qd in Male TA1 mice; 9 survived out of 10 mice; type: functional, Mus musculus; conditions: route intraperitoneal
[40] = In vivo antitumor activity against murine S-180 sarcoma at a dose of 1.3 mg/kg administered intraperitoneally 7qd in mice expressed effect on tumor weight; type: functional, Mus musculus; conditions: route intraperitoneal
[41] = In vivo antitumor activity against murine S-180 sarcoma at a dose of 5 mg/kg administered intraperitoneally 7qd in mice expressed effect on tumor weight; type: functional, Mus musculus; conditions: route intraperitoneal
[42] = In vivo antitumor activity against murine S-180 sarcoma at a dose of 6.8 mg/kg administered intraperitoneally 7qd in mice expressed effect on tumor weight; type: functional, Mus musculus; conditions: route intraperitoneal
[43] = In vivo antitumor activity against murine S-180 sarcoma at a dose of 1.3 mg/kg administered intraperitoneally 7qd in mice; Body wt initial/Final = 19.9/23.4; type: functional, Mus musculus; conditions: route intraperitoneal
[44] = In vivo antitumor activity against murine S-180 sarcoma at a dose of 2.5 mg/kg administered intraperitoneally 7qd in mice; Body wt initial/Final = 20.0/21.3; type: functional, Mus musculus; conditions: route intraperitoneal
[45] = In vivo antitumor activity against murine S-180 sarcoma at a dose of 5 mg/kg administered intraperitoneally 7qd in mice; Body wt initial/Final = 19.7/19.1; type: functional, Mus musculus; conditions: route intraperitoneal
[46] = In vivo antitumor activity against murine S-180 sarcoma at a dose of 6.8 mg/kg administered intraperitoneally 7qd in mice; Body wt initial/Final = 19.8/18.4; type: functional, Mus musculus; conditions: route intraperitoneal
[47] = In vivo antitumor activity against murine S-180 sarcoma at a dose of 1.3 mg/kg administered intraperitoneally 7qd in mice expressed as percent inhibition; type: functional; conditions: Mus musculus, S-180, ip, route intraperitoneal

Structure (SMILES): Nc1ccc(S(=O)(=O)N(CCOC(=O)CCCc2ccc(N(CCCl)CCCl)cc2)c2ncccn2)cc1
- selectivity ratio [1]: 47.5
- LD50 [2]: 131 mg/kg
- Tumor weight [3]: 0.51
- inhibition in vivo at 4.8 mg/kg [4]: 63.4%
- inhibition in vivo at 6.5 mg/kg [5]: 74.2%
- inhibition in vivo at 9.6 mg/kg [6]: 76.9%
- LD50 x 1/10 (Mus musculus [7]): 81.5
- LD50 x 1/20 (Mus musculus [8]): 74.2
- LD50 x 1/40 (Mus musculus [9]): 50.7
- Mice In. / Fi. [10]: 9
- Mice In. / Fi. [11]: 10
- Mice In. / Fi. [12]: 10
- Mice In. / Fi. [13]: 10
- Mice In. / Fi. [14]: 9
- Tumor weight [15]: 0.41
- Tumor weight [16]: 1.15
- Tumor weight [17]: 1.09
- Tumor weight [18]: 0.81
- Tumor weight [19]: 0.57
- Antitumour activity [20]: 76.9
- Antitumour activity [21]: 81.5
- Body weight In. / Fi. [22]: 19.8 g
- Body weight In. / Fi. [23]: 19.9 g
- Body weight In. / Fi. [24]: 19.6 g
- Antitumour activity [25]: 47.9
- Antitumour activity [26]: 63.4
- Body weight In. / Fi. [27]: 19.8 g
- Body weight In. / Fi. [28]: 19.6 g
- inhibition in vivo at 13 mg/kg [29]: 81.5%
- inhibition in vivo at 2.5 mg/kg [30]: 48%
- inhibition in vivo at 3.3 mg/kg [31]: 50.7%
- Body weight In. / Fi. [32]: 19.8 g
- Mice In. / Fi. [33]: 10

Structure (SMILES): O=C(O)CCCc1ccc(N(CCCl)CCCl)cc1 [CHLORAMBUCIL]
- selectivity ratio [1]: 22.8
- LD50 [34]: 49.6 mg/kg
- inhibition in vivo at 5 mg/kg [35]: 73.3%
- inhibition in vivo at 6.8 mg/kg [36]: 77.4%
- LD50 x 1/10 (Mus musculus [7]): 73.3
- LD50 x 1/20 (Mus musculus [8]): 52.9
- LD50 x 1/40 (Mus musculus [9]): 37.1
- Mice In. / Fi. [37]: 10
- Mice In. / Fi. [11]: 10
- Mice In. / Fi. [38]: 9
- Mice In. / Fi. [39]: 9
- Tumor weight [40]: 1.39
- Tumor weight [16]: 1.04
- Tumor weight [41]: 0.59
- Tumor weight [42]: 0.5
- Antitumour activity [20]: 73.3
- Antitumour activity [21]: 77.4
- Body weight In. / Fi. [43]: 19.9 g
- Body weight In. / Fi. [44]: 20 g
- Antitumour activity [25]: 37.1
- Antitumour activity [26]: 52.9
- Body weight In. / Fi. [45]: 19.7 g
- Body weight In. / Fi. [46]: 19.8 g
- inhibition in vivo at 1.3 mg/kg [47]: 37.1%
- inhibition in vivo at 2.5 mg/kg [30]: 52.9%
